# Experimental data as given in PubChem BioAssay (NCI).
#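 All cell lines were grown in 96-well plates and treated with compound for 48 hours. The concentration for full growth arrest is given as TGI.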
# How the values were obtained:
# Experiment in all cases: NCI-60 cell line screen, 48 h
# UO-31 renal = tested on: UO-31 renal
# SNB-19 CNS = tested on: SNB-19 CNS
# U251 CNS = tested on: U251 CNS
# NCI-H522 lung = tested on: NCI-H522 lung
# UACC-62 melanoma = tested on: UACC-62 melanoma
# HCT-116 colon = tested on: HCT-116 colon
# HCT-15 colon = tested on: HCT-15 colon
# 786-0 renal = tested on: 786-0 renal
# RXF 393 renal = tested on: RXF 393 renal
# SF-295 CNS = tested on: SF-295 CNS
# MALME-3M melanoma = tested on: MALME-3M melanoma
# K-562 leukemia = tested on: K-562 leukemia
# BT-549 breast = tested on: BT-549 breast
# SF-268 CNS = tested on: SF-268 CNS
# MOLT-4 leukemia = tested on: MOLT-4 leukemia
# ACHN renal = tested on: ACHN renal
# OVCAR-8 ovarian = tested on: OVCAR-8 ovarian
# SF-539 CNS = tested on: SF-539 CNS
# A549 NSCLC = tested on: A549 NSCLC
# OVCAR-3 ovarian = tested on: OVCAR-3 ovarian
# SNB-75 CNS = tested on: SNB-75 CNS
# HCC-2998 colon = tested on: HCC-2998 colon
# PC-3 prostate = tested on: PC-3 prostate
# EKVX NSCLC = tested on: EKVX NSCLC
# NCI/ADR-RES ovarian = tested on: NCI/ADR-RES ovarian
# SN12C renal = tested on: SN12C renal
# NCI-H460 lung = tested on: NCI-H460 lung
# NCI-H226 lung = tested on: NCI-H226 lung
# UACC-257 melanoma = tested on: UACC-257 melanoma
# KM12 colon = tested on: KM12 colon
# IGROV1 ovarian = tested on: IGROV1 ovarian
# OVCAR-5 ovarian = tested on: OVCAR-5 ovarian
# MCF7 breast = tested on: MCF7 breast
# NCI-H23 lung = tested on: NCI-H23 lung
# T-47D breast = tested on: T-47D breast
# RPMI-8226 leukemia = tested on: RPMI-8226 leukemia
# OVCAR-4 ovarian = tested on: OVCAR-4 ovarian
# HL-60(TB) leukemia = tested on: HL-60(TB) leukemia
# TK-10 renal = tested on: TK-10 renal
# HOP-62 NSCLC = tested on: HOP-62 NSCLC
# M14 melanoma = tested on: M14 melanoma
# SK-MEL-28 melanoma = tested on: SK-MEL-28 melanoma
# COLO 205 colon = tested on: COLO 205 colon
# LOX IMVI melanoma = tested on: LOX IMVI melanoma
# MDA-MB-435 = tested on: MDA-MB-435
# SW-620 colon = tested on: SW-620 colon
# SK-MEL-2 melanoma = tested on: SK-MEL-2 melanoma
# SK-OV-3 ovarian = tested on: SK-OV-3 ovarian
# DU-145 prostate = tested on: DU-145 prostate
# MDA-N = tested on: MDA-N
# CAKI-1 renal = tested on: CAKI-1 renal
# MDA-MB-231 breast = tested on: MDA-MB-231 breast
# HT29 colon = tested on: HT29 colon
# A498 renal = tested on: A498 renal
# HOP-92 NSCLC = tested on: HOP-92 NSCLC
# HS 578T breast = tested on: HS 578T breast
# CCRF-CEM leukemia = tested on: CCRF-CEM leukemia
# SK-MEL-5 melanoma = tested on: SK-MEL-5 melanoma
smiles,measurement,setting,value
COc1cc(C(=O)N(C)N(C)C)cc(OC)c1OC,TGI,UO-31 renal,> 10 µM
same,TGI,SNB-19 CNS,> 10 µM
same,TGI,U251 CNS,> 10 µM
same,TGI,NCI-H522 lung,> 10 µM
same,TGI,UACC-62 melanoma,> 10 µM
same,TGI,HCT-116 colon,> 10 µM
same,TGI,HCT-15 colon,> 10 µM
same,TGI,786-0 renal,> 10 µM
same,TGI,RXF 393 renal,> 10 µM
same,TGI,SF-295 CNS,> 10 µM
same,TGI,MALME-3M melanoma,> 10 µM
same,TGI,K-562 leukemia,> 10 µM
same,TGI,BT-549 breast,> 10 µM
same,TGI,SF-268 CNS,> 10 µM
same,TGI,MOLT-4 leukemia,> 10 µM
same,TGI,ACHN renal,> 10 µM
same,TGI,OVCAR-8 ovarian,> 10 µM
same,TGI,SF-539 CNS,> 10 µM
same,TGI,A549 NSCLC,> 10 µM
same,TGI,OVCAR-3 ovarian,> 10 µM
same,TGI,SNB-75 CNS,> 10 µM
same,TGI,HCC-2998 colon,> 10 µM
same,TGI,PC-3 prostate,> 10 µM
same,TGI,EKVX NSCLC,> 10 µM
same,TGI,NCI/ADR-RES ovarian,> 10 µM
same,TGI,SN12C renal,> 10 µM
same,TGI,NCI-H460 lung,> 10 µM
same,TGI,NCI-H226 lung,> 10 µM
same,TGI,UACC-257 melanoma,> 10 µM
same,TGI,KM12 colon,> 10 µM
same,TGI,IGROV1 ovarian,> 10 µM
same,TGI,OVCAR-5 ovarian,> 10 µM
same,TGI,MCF7 breast,> 10 µM
same,TGI,NCI-H23 lung,> 10 µM
same,TGI,T-47D breast,> 10 µM
same,TGI,RPMI-8226 leukemia,> 10 µM
same,TGI,OVCAR-4 ovarian,> 10 µM
same,TGI,HL-60(TB) leukemia,> 10 µM
same,TGI,TK-10 renal,> 10 µM
same,TGI,HOP-62 NSCLC,> 10 µM
same,TGI,M14 melanoma,> 10 µM
same,TGI,SK-MEL-28 melanoma,> 10 µM
same,TGI,COLO 205 colon,> 10 µM
same,TGI,LOX IMVI melanoma,> 10 µM
same,TGI,MDA-MB-435,> 10 µM
same,TGI,SW-620 colon,> 10 µM
same,TGI,SK-MEL-2 melanoma,> 10 µM
same,TGI,SK-OV-3 ovarian,> 10 µM
same,TGI,DU-145 prostate,> 10 µM
same,TGI,MDA-N,> 10 µM
same,TGI,CAKI-1 renal,> 10 µM
same,TGI,MDA-MB-231 breast,> 10 µM
same,TGI,HT29 colon,> 10 µM
same,TGI,A498 renal,> 10 µM
same,TGI,HOP-92 NSCLC,> 10 µM
same,TGI,HS 578T breast,> 10 µM
same,TGI,CCRF-CEM leukemia,> 10 µM
same,TGI,SK-MEL-5 melanoma,> 10 µM
COc1ccc(C(NS(=O)(=O)c2ccc(C)cc2)c2c(C(CBr)OC)c3ccccc3n2S(=O)(=O)c2ccccc2)cc1OC (stereo not given),TGI,UO-31 renal,> 100 µM
same,TGI,SNB-19 CNS,> 100 µM
same,TGI,U251 CNS,> 100 µM
same,TGI,NCI-H522 lung,> 100 µM
same,TGI,UACC-62 melanoma,> 100 µM
same,TGI,HCT-116 colon,> 100 µM
same,TGI,HCT-15 colon,> 100 µM
same,TGI,786-0 renal,> 100 µM
same,TGI,RXF 393 renal,> 100 µM
same,TGI,SF-295 CNS,> 100 µM
same,TGI,MALME-3M melanoma,> 100 µM
same,TGI,K-562 leukemia,> 100 µM
same,TGI,BT-549 breast,> 100 µM
same,TGI,SF-268 CNS,> 100 µM
same,TGI,MOLT-4 leukemia,> 100 µM
same,TGI,ACHN renal,> 100 µM
same,TGI,OVCAR-8 ovarian,> 100 µM
same,TGI,SF-539 CNS,> 100 µM
same,TGI,A549 NSCLC,> 100 µM
same,TGI,OVCAR-3 ovarian,> 100 µM
same,TGI,SNB-75 CNS,> 100 µM
same,TGI,HCC-2998 colon,> 100 µM
same,TGI,PC-3 prostate,> 100 µM
same,TGI,EKVX NSCLC,> 100 µM
same,TGI,NCI/ADR-RES ovarian,> 100 µM
same,TGI,SN12C renal,> 100 µM
same,TGI,NCI-H460 lung,> 100 µM
same,TGI,NCI-H226 lung,> 100 µM
same,TGI,UACC-257 melanoma,> 100 µM
same,TGI,KM12 colon,> 100 µM
same,TGI,IGROV1 ovarian,> 100 µM
same,TGI,OVCAR-5 ovarian,> 100 µM
same,TGI,MCF7 breast,> 100 µM
same,TGI,NCI-H23 lung,> 100 µM
same,TGI,T-47D breast,> 100 µM
same,TGI,OVCAR-4 ovarian,> 100 µM
same,TGI,HL-60(TB) leukemia,> 100 µM
same,TGI,TK-10 renal,> 100 µM
same,TGI,HOP-62 NSCLC,> 100 µM
same,TGI,M14 melanoma,> 100 µM
same,TGI,SK-MEL-28 melanoma,> 100 µM
same,TGI,COLO 205 colon,> 100 µM
same,TGI,LOX IMVI melanoma,> 100 µM
same,TGI,MDA-MB-435,> 100 µM
same,TGI,SW-620 colon,> 100 µM
same,TGI,SK-MEL-2 melanoma,> 100 µM
same,TGI,SK-OV-3 ovarian,> 100 µM
same,TGI,DU-145 prostate,> 100 µM
same,TGI,MDA-N,> 100 µM
same,TGI,CAKI-1 renal,> 100 µM
same,TGI,MDA-MB-231 breast,> 100 µM
same,TGI,HT29 colon,> 100 µM
same,TGI,A498 renal,> 100 µM
same,TGI,HOP-92 NSCLC,> 100 µM
same,TGI,HS 578T breast,> 100 µM
same,TGI,CCRF-CEM leukemia,> 100 µM
same,TGI,SK-MEL-5 melanoma,> 100 µM
